# Reference: US8563553B2, “Compounds and compositions as protein kinase inhibitors” (Novartis AG, priority 2009, dated 2013)
# Target: b-Raf(V600E) (Homo sapiens (Human), UniProt P15056, V600E)
# Experiment: Raf/Mek Amplified Luminescence Proximity Homogeneous Assay (Alpha Screen)
# Format: biochemical
# Conditions: b-Raf(V600E) approximately 4 pM; biotinylated Mek, kinase dead approximately 10 nM; ATP 10 μM; pre-incubation 60 minutes; reaction 3 hours at room temperature; read-out: mut-B-RAF IC50
# Protocol: Raf/Mek Amplified Luminescence Proximity Homogeneous Assay
# Assay buffer: 50 mM Tris, pH 7.5, 15 mM MgCl2, 0.01% Bovine Serum Albumin (BSA), 1 mM dithiothreitol (DTT) Stop buffer: 60 mM ethylenediaminetetraacetic acid (EDTA), 0.01% Tween® 20 Bead buffer: 50 mM Tris, pH 7.5, 0.01% Tween® 20 […]
# biotinylated Mek, kinase dead
# Alpha Screen detection kit (available from PerkinElmer™, #6760617R)
# Anti phospho-MEK1/2 (available from Cell Signaling Technology, Inc. #9121) 384 well assay plates (White Greiner® plates, #781207) […]
# biotinylated Mek, Kinase dead approximately 10 nM
# Pre-incubation time with compounds 60 minutes at room temperature
# Reaction time 1 or 3 hours at room temperature
# Raf and biotinylated Mek, kinase dead, were combined at 2× final concentrations in assay buffer (50 mM Tris, pH 7.5, 15 mM MgCl2, 0.01% BSA and 1 mM DTT) and dispensed 10 μl per well in assay plates (Greiner white 384 well assay plates #781207) containing 0.5 μl of 40× of a raf kinase inhibitor test compound diluted in 100% DMSO. The plate was incubated for 60 minutes at room temperature.
# The Raf kinase activity reaction was started by the addition of 10 μL per well of 2×ATP diluted in assay buffer. […] Phosphorylated product was measured using a rabbit anti-p-MEK (Cell Signaling, #9121) antibody and the Alpha Screen IgG (ProteinA) detection Kit (PerkinElmer #6760617R), by the addition of 30 μL to the well of a mixture of the antibody (1:2000 dilution) and detection beads (1:2000 dilution of both beads) in bead buffer (50 mM Tris, pH 7.5, 0.01% Tween20). The additions were carried out under dark conditions to protect the detection beads from light. A lid was placed on top of the plate and incubated for 1 hour at room temperature, then the luminescence was read on a PerkinElmer Envision instrument. The concentration of each compound for 50% inhibition (IC50) was calculated by non-linear regression using XL Fit data analysis software.
# Sequence of b-Raf(V600E) (P15056 whole entry V600E): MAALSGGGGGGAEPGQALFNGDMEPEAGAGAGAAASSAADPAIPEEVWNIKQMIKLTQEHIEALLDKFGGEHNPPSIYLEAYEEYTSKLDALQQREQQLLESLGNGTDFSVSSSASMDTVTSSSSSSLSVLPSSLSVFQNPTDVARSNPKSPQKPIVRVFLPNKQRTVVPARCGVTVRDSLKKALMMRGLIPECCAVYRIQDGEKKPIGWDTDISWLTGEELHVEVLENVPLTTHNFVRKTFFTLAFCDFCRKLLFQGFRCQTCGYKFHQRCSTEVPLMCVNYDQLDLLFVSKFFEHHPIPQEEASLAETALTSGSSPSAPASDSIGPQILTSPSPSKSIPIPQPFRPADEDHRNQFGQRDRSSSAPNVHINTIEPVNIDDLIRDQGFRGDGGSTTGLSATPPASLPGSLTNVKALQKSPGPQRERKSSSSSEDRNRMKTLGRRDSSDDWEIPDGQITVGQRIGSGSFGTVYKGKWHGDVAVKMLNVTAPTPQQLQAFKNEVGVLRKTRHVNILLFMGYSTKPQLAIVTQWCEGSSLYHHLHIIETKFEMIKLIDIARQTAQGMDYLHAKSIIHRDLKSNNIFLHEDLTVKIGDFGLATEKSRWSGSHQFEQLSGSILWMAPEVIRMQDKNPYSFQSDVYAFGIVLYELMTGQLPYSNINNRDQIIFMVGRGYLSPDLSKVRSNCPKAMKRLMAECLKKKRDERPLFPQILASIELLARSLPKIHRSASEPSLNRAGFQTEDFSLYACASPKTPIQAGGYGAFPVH
row,IC50,Compound
1,5 nM,"COC(=O)N[C@@H](C)CNc1nccc(-c2[nH]c(C3CC3)nc2-c2c(F)ccc(NS(C)(=O)=O)c2Cl)n1 [Example 2F, Methyl (2S)-1-(4-(4-(2-chloro-6-fluoro-3-(methylsulfonamido)phenyl)-2-cyclopropyl-1H-imidazol-5-yl)pyrimidin-2-ylamino)propan-2-ylcarbamate]"
2,34.5 nM,"COC(=O)N[C@@H](C)CNc1nccc(-c2[nH]c(C(C)(C)C)nc2-c2cccc(NS(C)(=O)=O)c2)n1 [Example 1R, (S)-Methyl 1-(4-(2-tert-butyl-4-(3-(methylsulfonamido)phenyl)-1H-imidazol-5-yl)pyrimidin-2-ylamino)propan-2-ylcarbamate]"
3,0.5 nM,"CCC(C)S(=O)(=O)Nc1cc(Cl)cc(-c2nc(C(C)(C)C)[nH]c2-c2ccnc(NC[C@H](C)NC(=O)OC)n2)c1 (stereo partly drawn) [Example 1H, Methyl (2S)-1-(4-(2-tert-butyl-4-(3-chloro-5-(1-methylpropylsulfonamido)phenyl)-1H-imidazol-5-yl)pyrimidin-2-ylamino)propan-2-ylcarbamate]"
4,31 nM,"CNc1nccc(-c2[nH]c(C3CC3)nc2-c2cc(F)cc(NS(C)(=O)=O)c2Cl)n1 [Example 1BW, N-(2-Chloro-3-(2-cyclopropyl-5-(2-(methylamino)pyrimidin-4-yl)-1H-imidazol-4-yl)-5-fluorophenyl)methanesulfonamide]"
5,1 nM,"CCCS(=O)(=O)Nc1cc(F)cc(-c2nc(C3CC3)[nH]c2-c2ccnc(NCC)n2)c1Cl [Example 1AS, N-(2-Chloro-3-(2-cyclopropyl-5-(2-(ethylamino)pyrimidin-4-yl)-1H-imidazol-4-yl)-5-fluorophenyl)propane-1-sulfonamide]"
6,3.12 nM,"COC(=O)N[C@@H](C)CNc1nccc(-c2[nH]c(C(C)(C)C)nc2-c2cc(C)cc(NS(=O)(=O)C(C)C)c2)n1 [Example 1Q, (S)-Methyl 1-(4-(2-tert-butyl-4-(3-methyl-5-(1-methylethylsulfonamido)phenyl)-1H-imidazol-5-yl)pyrimidin-2-ylamino)propan-2-ylcarbamate]"
7,11 nM,"CC(C#N)CNc1nccc(-c2[nH]c(C3CC3)nc2-c2cccc(NS(C)(=O)=O)c2Cl)n1 (centres unmarked) [Example 1AK, N-(2-Chloro-3-(5-(2-(2-cyanopropylamino)pyrimidin-4-yl)-2-cyclopropyl-1H-imidazol-4-yl)phenyl)methanesulfonamide]"
8,1 nM,"CCCS(=O)(=O)Nc1cccc(-c2nc(C3CC3)[nH]c2-c2ccnc(NC[C@H](C)NC(=O)OC)n2)c1 [Example 4J, (S)-Methyl 1-(4-(2-cyclopropyl-4-(3-(propylsulfonamido)phenyl)-1H-imidazol-5-yl)pyrimidin-2-ylamino)propan-2-ylcarbamate]"
9,0.2 nM,"COC(=O)N[C@@H](C)CNc1nccc(-c2[nH]c(C3CC3)nc2-c2cc(F)cc(NS(C)(=O)=O)c2F)n1 [Example 1V, Methyl (2S)-1-(4-(2-cyclopropyl-4-(2,5-difluoro-3-(methylsulfonamido)phenyl)-1H-imidazol-5-yl)pyrimidin-2-ylamino)propan-2-ylcarbamate]"
10,0.1 nM,"COC(=O)N[C@@H](C)CNc1nccc(-c2[nH]c(C(C)(C)C)nc2-c2cc(Cl)cc(NS(=O)(=O)C3CC3)c2)n1 [Example 1F, (S)-methyl 1-(4-(2-tert-butyl-4-(3-chloro-5-(cyclopropanesulfonamido)phenyl)-1H-imidazol-5-yl)pyrimidin-2-ylamino)propan-2-ylcarbamate]"
11,8 nM,"COC(=O)N[C@@H](C)CNc1nccc(-c2[nH]c(C3CC3)nc2-c2cccc(NS(C)(=O)=O)c2)n1 [Example 4K, (S)-Methyl 1-(4-(2-cyclopropyl-4-(3-(methylsulfonamido)phenyl)-1H-imidazol-5-yl)pyrimidin-2-ylamino)propan-2-ylcarbamate]"
12,4 nM,"CCCS(=O)(=O)Nc1cc(F)cc(-c2nc(C3CC3)[nH]c2-c2ccncn2)c1Cl [Example 2K, N-(2-Chloro-3-(2-cyclopropyl-5-(pyrimidin-4-yl)-1H-imidazol-4-yl)-5-fluorophenyl)propane-1-sulfonamide]"
13,0.2 nM,"CCCS(=O)(=O)Nc1cc(F)cc(-c2nc(C3CC3)[nH]c2-c2ccnc(N)n2)c1Cl [Example 1BS, N-(3-(5-(2-Aminopyrimidin-4-yl)-2-cyclopropyl-1H-imidazol-4-yl)-2-chloro-5-fluorophenyl)propane-1-sulfonamide]"
14,2 nM,"COC(=O)N[C@@H](C)CNc1nccc(-c2[nH]c(-c3ccc(C(F)(F)F)cc3)nc2-c2cc(F)cc(NS(C)(=O)=O)c2Cl)n1 [Example 1BZ, (S)-Methyl 1-(4-(4-(2-chloro-5-fluoro-3-(methylsulfonamido)phenyl)-2-(4-(trifluoromethyl)phenyl)-1H-imidazol-5-yl)pyrimidin-2-ylamino)propan-2-ylcarbamate]"
15,0.18 nM,"COC(=O)N[C@@H](C)CNc1nccc(-c2[nH]c(C3CC3)nc2-c2cc(Cl)cc(NS(C)(=O)=O)c2Cl)n1 [Example 1X, (S)-Methyl 1-(4-(2-cyclopropyl-4-(2,5-dichloro-3-(methylsulfonamido)phenyl)-1H-imidazol-5-yl)pyrimidin-2-ylamino)propan-2-ylcarbamate]"
16,2 nM,"CCCS(=O)(=O)Nc1cccc(-c2nc(C3CC3)[nH]c2-c2ccnc(NCCC(N)=O)n2)c1F [Example 4H, 3-(4-(2-Cyclopropyl-4-(2-fluoro-3-(propylsulfonamido)phenyl)-1H-imidazol-5-yl)pyrimidin-2-ylamino)propanamide]"
17,5 nM,"CCCS(=O)(=O)Nc1cc(F)cc(-c2nc(C3CC3)[nH]c2-c2ccnc(NC(C)C)n2)c1Cl [Example 1AU, N-(2-Chloro-3-(2-cyclopropyl-5-(2-(isopropylamino)pyrimidin-4-yl)-1H-imidazol-4-yl)-5-fluorophenyl)propane-1-sulfonamide]"
18,0.13 nM,"CCCS(=O)(=O)Nc1cccc(-c2nc(C3CC3)[nH]c2-c2ccnc(NC[C@H](C)NC(=O)OC)n2)c1Cl [Example 4A-3, (S)-methyl 1-(4-(4-(2-chloro-3-(propylsulfonamido)phenyl)-2-cyclopropyl-1H-imidazol-5-yl)pyrimidin-2-ylamino)propan-2-ylcarbamate]"
19,0.19 nM,"Nc1nccc(-c2[nH]c(C3CC3)nc2-c2cc(F)cc(NS(=O)(=O)c3c(F)cccc3F)c2Cl)n1 [Example 1BR, N-(3-(5-(2-Aminopyrimidin-4-yl)-2-cyclopropyl-1H-imidazol-4-yl)-2-chloro-5-fluorophenyl)-2,6-difluorobenzenesulfonamide]"
20,0.13 nM,"CC(C)(C)c1nc(-c2cc(Cl)cc(NS(=O)(=O)c3c(F)cccc3F)c2F)c(-c2ccnc(N)n2)[nH]1 [Example 1BE, N-(3-(5-(2-Aminopyrimidin-4-yl)-2-tert-butyl-1H-imidazol-4-yl)-5-chloro-2-fluorophenyl)-2,6-difluorobenzenesulfonamide]"
21,5 nM,"CC(C)CNc1nccc(-c2[nH]c(C3CC3)nc2-c2cc(F)cc(NS(C)(=O)=O)c2Cl)n1 [Example 1AR, N-(2-Chloro-3-(2-cyclopropyl-5-(2-(isobutylamino)pyrimidin-4-yl)-1H-imidazol-4-yl)-5-fluorophenyl)methanesulfonamide]"
22,1 nM,"COC(=O)N[C@@H](C)CNc1nccc(-c2[nH]c(C(C)(C)C)nc2-c2cc(F)cc(NS(C)(=O)=O)c2Cl)n1 [Example 1AG, (S)-Methyl 1-(4-(2-tert-butyl-4-(2-chloro-5-fluoro-3-(methylsulfonamido)phenyl)-1H-imidazol-5-yl)pyrimidin-2-ylamino)propan-2-ylcarbamate]"
23,1 nM,CCCS(=O)(=O)Nc1cc(F)cc(-c2nc(C(C)(C)C)[nH]c2-c2ccnc(NC[C@H](C)NC(=O)OC)n2)c1Cl [Example 1AH]
24,0.37 nM,"COC(=O)N[C@@H](C)CNc1nccc(-c2[nH]c(C3CC3)nc2-c2cc(Cl)cc(NS(=O)(=O)c3cc(F)cc(F)c3)c2F)n1 [Example 1BM, (S)-Methyl 1-(4-(4-(5-chloro-3-(3,5-difluorophenylsulfonamido)-2-fluorophenyl)-2-cyclopropyl-1H-imidazol-5-yl)pyrimidin-2-ylamino)propan-2-ylcarbamate]"
25,0.29 nM,"Cc1cc(NS(C)(=O)=O)c(Cl)c(-c2nc(C3(C)CC3)[nH]c2-c2ccnc(NCCC#N)n2)c1 [Example 1AZ, N-(2-Chloro-3-(5-(2-(2-cyanoethylamino)pyrimidin-4-yl)-2-(1-methylcyclopropyl)-1H-imidazol-4-yl)-5-methylphenyl)methanesulfonamide]"

row,Compound,IC50
1,"CS(=O)(=O)Nc1cccc(-c2nc(C3CC3)[nH]c2-c2ccnc(NCC3(C#N)CC3)n2)c1Cl [Example 2G, N-(2-Chloro-3-(5-(2-((1-cyanocyclopropyl)methylamino)pyrimidin-4-yl)-2-cyclopropyl-1H-imidazol-4-yl)phenyl)methanesulfonamide]",35 nM
